Reference: patent publication US7998924B2, “Compounds that bind to p185 and methods of using the same” (The Trustees of The University of Pennsylvania, priority 2001, dated 2011)
Where two headings read alike, the source gives them in different places.

Legend:
[1] = Peptide solubility in PBS buffer at 1 mg/mL; type: physicochemical; settings: pH 7.4, 1 mg/mL
Experimental: These peptides could be readily dissolved in the PBS buffer, pH 7.4, at 1 mg/mL concentration without adjustment of pH.

HER2 receptor [2] = target: T1, HER2 receptor (Homo sapiens, UniProt P04626); experiment: Biacore competition: AHNP preinjection inhibits rhumAb 4D5 binding to immobilized HER2
T1 construct: Recombinant purified HER2 receptor composed of the ectodomain of HER2 fused to the Fc of human IgG; purchased Xcyte Therapeutics, Seattle, Wash; (provided by Dr. Che Law; a gift, not a catalogue product)
T1 sequence (P04626 23-652 limits assumed): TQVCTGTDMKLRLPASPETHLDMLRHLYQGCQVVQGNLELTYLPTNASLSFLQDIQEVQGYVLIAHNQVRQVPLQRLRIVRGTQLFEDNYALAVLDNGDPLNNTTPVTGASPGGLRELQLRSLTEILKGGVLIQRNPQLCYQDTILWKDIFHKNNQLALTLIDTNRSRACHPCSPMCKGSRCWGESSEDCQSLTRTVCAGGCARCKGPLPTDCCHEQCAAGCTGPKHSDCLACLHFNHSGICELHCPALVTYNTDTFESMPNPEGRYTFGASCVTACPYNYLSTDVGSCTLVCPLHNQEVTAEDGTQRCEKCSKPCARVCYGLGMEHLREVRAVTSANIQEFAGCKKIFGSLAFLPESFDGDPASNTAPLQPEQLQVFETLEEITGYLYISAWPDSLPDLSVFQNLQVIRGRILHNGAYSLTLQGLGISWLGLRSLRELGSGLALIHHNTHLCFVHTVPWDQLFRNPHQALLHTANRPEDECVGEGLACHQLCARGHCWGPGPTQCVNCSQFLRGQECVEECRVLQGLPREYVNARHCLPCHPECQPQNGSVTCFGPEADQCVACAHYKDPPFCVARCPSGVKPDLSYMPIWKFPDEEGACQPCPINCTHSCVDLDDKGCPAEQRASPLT
Experimental: It was shown earlier that the AHNP peptide can mimic some functions of the anti-HER2/neu antibody, rhumAb 4135 in vitro and in vivo (see reference 40 below). […] To that end, injections of AHNP at variable concentrations (from 0 to 90 μM) were followed by injections of rhumAb 4135 at a constant 1 nM concentration, using the “Coinject” mode of the Biacore instrument.
Binding experiments were performed with the surface plasmon resonance based biosensor instrument Biacore 3000 (Biacore AB, Uppsala, Sweden) at 25° C. Recombinant purified HER2 receptor composed of the ectodomain of HER2 fused to the Fc of human IgG was provided by Dr. Che Law, Xcyte Therapeutics, Seattle, Wash. Immobilization of HER2 in the sensor surface was performed following the standard amine coupling procedure according to manufacturer's instructions. Briefly, 35 pit of a solution containing 0.2M N-ethyl-N-(dimethylaminopropyl) carbodiimide (EDC) and 0.05 M N-hydroxysuccinimide (NHS) were injected at a flow rate of 5 μL/min to activate carboxyl groups on the sensor chip surface. HER2 (40 ng/mL in 10 mM NaOAc buffer, pH 5.0) was flowed over the chip surface at a flow rate of 20 μL/min until the desired level bound protein was reached. […] Peptides were injected at variable concentrations at 20 μL/min flow rate and binding to the HER2 receptor immobilized on the chip was monitored in real time. […]

T6-17 cells = test system: T6-17 cells
Experimental: (See reference 46 below.) HER2-expressing transformed tumor cells (T6-17) were used for this purpose. […] Each value represents an average of at least four samples.
The MTT assay has been used for measuring cell growth as previously described in ref 446. Briefly, T6-17 cells were seeded in 96-well plates overnight in DMEM containing 10% FBS (1000 per well). T6-17 is derived from NIH3T3 by overexpressing the human HER2 receptor. Cells were cultured in 100 μL of fresh medium containing 1 μg/mL of peptides for 48 h. […] A total of 25 μL of MTT solution (5 mg/mL in PBS) was added to each well, and after 2 h of incubation at 37° C., 100 μA of the extraction buffer (20% w/v of SDS, 50% N,N-dimethyl formamide, pH 4.7) were added. After an overnight incubation at 37° C., the optical density at 600 rim was measured using an ELISA reader.

HER2 receptor [3] = target: T1, HER2 receptor; experiment: Biacore (surface plasmon resonance) binding of peptides to immobilized HER2
Source text: Binding of AHNP has been studies by means of surface plasmon resonance (Biacore) technology. In Biacore experiments, one of the interacting molecules (termed the ligand) is immobilized on the sensor surface, and the other interactant (termed the analyte) is continuously flown over that surface in a micro-flow cell. The interaction between the ligand and the analyte are monitored using a light source that is reflected at the immobilized chip. Binding of the analyte to the immobilized ligand changes the resonance angle of the reflected light due to changes in the refractive index of the surface. The response is plotted in real time in the form of sensorgram curves. The advantage with this approach is its sensitivity, ease of use, and ability to perform experiments with few microgram quantities of proteins and peptides. In addition, the kinetic binding studies reveal association and disassociation rates of the analyte which may be more relevant for understanding the pharmacokinetics of drug-receptor interactions.
Binding experiments were performed with the surface plasmon resonance based biosensor instrument Biacore 3000 (Biacore AB, Uppsala, Sweden) at 25° C. Recombinant purified HER2 receptor composed of the ectodomain of HER2 fused to the Fc of human IgG was provided by Dr. Che Law, Xcyte Therapeutics, Seattle, Wash. Immobilization of HER2 in the sensor surface was performed following the standard amine coupling procedure according to manufacturer's instructions. Briefly, 35 pit of a solution containing 0.2M N-ethyl-N-(dimethylaminopropyl) carbodiimide (EDC) and 0.05 M N-hydroxysuccinimide (NHS) were injected at a flow rate of 5 μL/min to activate carboxyl groups on the sensor chip surface. HER2 (40 ng/mL in 10 mM NaOAc buffer, pH 5.0) was flowed over the chip surface at a flow rate of 20 μL/min until the desired level bound protein was reached. Unreacted protein was washed out and unreacted activated groups were blocked by the injection of 35 μL of 1 M ethanolamine at 5 μL/min. […] A reference surface was generated simultaneously under the same conditions but without HER2 injection and used as a blank to correct for instrument and buffer artifacts. Peptides were injected at variable concentrations at 20 μL/min flow rate and binding to the HER2 receptor immobilized on the chip was monitored in real time. Each sensorgram consists of an association phase (first 240 s), reflecting binding of the injected peptide to the receptor, followed by a dissociation phase (300 s), during which the running buffer is passed over the chip and the bound peptide is being washed off the receptor surface.

CSCC[C@H](NC(=O)[C@H](Cc1ccc(O)cc1)NC(=O)[C@@H]1CSSC[C@H](NC(=O)[C@@H](N)Cc2ccccc2)C(=O)N[C@@H](CC(=O)O)C(=O)NCC(=O)N[C@@H](Cc2ccccc2)C(=O)N[C@@H](Cc2ccc(O)cc2)C(=O)N[C@@H](C)C(=O)N1)C(=O)N[C@@H](CC(=O)O)C(=O)N[C@H](C(N)=O)C(C)C [Peptide 1]
solubility [1]: < 1000 µg/mL
IC50 (HER2 receptor [2]): 3400 nM
% inhibition of T6-17 cell proliferation in MTT assays (T6-17 cells; 1 μg/mL of peptides for 48 h): 35.5%
inhibition of growth of T6-17 cells (in words) (T6-17 cells; 0.01 to 10 μg/mL): dose-dependently
koff (HER2 receptor [3]): 0.000453 s⁻¹
kon (HER2 receptor [3]): 1410 M⁻¹ s⁻¹
receptor-binding affinity (in words) (HER2 receptor [3]; Biacore): submicromolar
Kd (HER2 receptor [3]; Biacore, immobilized HER2, 25° C., read-out: binding to HER2 KD): 320 nM
koff (HER2 receptor [3]; read-out: binding to HER2 koff): 0.000453 s⁻¹
kon (HER2 receptor [3]; read-out: binding to HER2 kon): 1410 M⁻¹ s⁻¹
